# Source: ChEMBL document CHEMBL4376821, “Recent Developments in Therapeutic Peptides for the Glucagon-like Peptide 1 and 2 Receptors” (J Med Chem, 2020)
# pEC50: −log10 of the molar value. Non-standard residues stand in square brackets, D forms with d. Residues, ends and D or L forms follow the SMILES beside them. *: point of attachment. Palmitoyl = CCCCCCCCCCCCCCCC(=O)*; Nle = CCCC[C@H](N)C(=O)O
# Assays:
# [1] = Half life in human plasma; assay type: ADME, cell-free
# [2] = Half life in C57BL/6J mouse at 800 nmol/kg, sc measured up to 24 hrs by LC-MS/MS analysis; assay type: ADME, organism-based; details: in vivo
# [3] = biological target: T1, Glucagon-like peptide 2 receptor (Homo sapiens, UniProt O95838); assay: Agonist activity at human GLP-2 receptor expressed in CHO-K1 cells assessed as cAMP induction by FRET assay; assay type: functional, cell-based
# T1 sequence (O95838 whole entry): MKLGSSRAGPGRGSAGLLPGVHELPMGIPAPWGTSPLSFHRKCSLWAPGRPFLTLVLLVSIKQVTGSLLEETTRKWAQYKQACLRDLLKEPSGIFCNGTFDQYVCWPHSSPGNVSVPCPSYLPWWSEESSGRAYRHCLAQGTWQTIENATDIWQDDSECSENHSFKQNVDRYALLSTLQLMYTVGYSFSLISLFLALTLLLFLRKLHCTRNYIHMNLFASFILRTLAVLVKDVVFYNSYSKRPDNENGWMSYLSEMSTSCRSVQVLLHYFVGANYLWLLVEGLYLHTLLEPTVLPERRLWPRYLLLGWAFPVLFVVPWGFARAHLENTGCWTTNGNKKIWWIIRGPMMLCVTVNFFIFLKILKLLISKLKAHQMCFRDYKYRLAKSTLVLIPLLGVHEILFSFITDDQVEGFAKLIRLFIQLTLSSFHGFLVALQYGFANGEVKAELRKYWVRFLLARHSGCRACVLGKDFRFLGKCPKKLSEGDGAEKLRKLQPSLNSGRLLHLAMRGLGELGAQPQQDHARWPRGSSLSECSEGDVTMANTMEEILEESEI
# [4] = biological target: Glucagon-like peptide 1 receptor (Homo sapiens, UniProt P43220); assay: Agonist activity at human GLP-1 receptor expressed in CHO-K1 cells assessed as cAMP induction by FRET assay; assay type: functional, cell-based
# [5] = Clearance in Sprague-Dawley rat at 0.2 mg/kg, iv; assay type: ADME, organism-based; details: in vivo
# [6] = Terminal half life in cynomolgus monkey at 0.25 mg/kg, sc; assay type: ADME, organism-based, Macaca fascicularis; details: in vivo, read-out: beta t1/2
# [7] = Half-life in Yucatan mini-pig at 0.15 mg, sc; assay type: ADME, Sus scrofa domesticus; details: in vivo
# [8] = Half life in human at 15 mg, sc qd measured on day 8 by liquid chromatography/tandem mass spectrometry method; assay type: ADME, organism-based; details: in vivo
# Homo sapiens = species on record: Homo sapiens; assay: Induction of plasma citrulline level in human; assay type: functional
# [9] = Half life in human; assay type: ADME
# [10] = Half life in human plasma at 0.5 mg for 4 weeks followed by 0.5 mg for 4 weeks and subsequently 1 mg for weeks administered subcutaneously once weekly and measured up to 840 hrs post last dose by LC-MS/MS analysis; assay type: ADME; details: sc
# Glucagon-like peptide 1 receptor, sequence (P43220 whole entry): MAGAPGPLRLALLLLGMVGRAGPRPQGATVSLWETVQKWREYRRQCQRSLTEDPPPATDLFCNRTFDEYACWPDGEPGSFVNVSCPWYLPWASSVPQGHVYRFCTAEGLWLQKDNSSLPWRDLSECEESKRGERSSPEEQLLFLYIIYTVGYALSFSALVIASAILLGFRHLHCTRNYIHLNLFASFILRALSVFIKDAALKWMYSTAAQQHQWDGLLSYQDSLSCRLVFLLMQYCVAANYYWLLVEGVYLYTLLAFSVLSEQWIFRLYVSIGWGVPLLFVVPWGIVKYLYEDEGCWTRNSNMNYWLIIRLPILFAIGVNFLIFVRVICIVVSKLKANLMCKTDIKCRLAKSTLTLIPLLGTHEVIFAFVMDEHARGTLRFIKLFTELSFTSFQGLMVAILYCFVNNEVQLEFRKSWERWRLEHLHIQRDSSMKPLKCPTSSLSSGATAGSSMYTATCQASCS
molecule,measurement,setting,value
CC[C@H](C)[C@H](NC(=O)[C@H](Cc1ccccc1)NC(=O)[C@H](CCC(=O)O)NC(=O)[C@H](CCCCN)NC(=O)[C@H](C)NC(=O)[C@H](C)NC(=O)[C@H](CCC(N)=O)NC(=O)CNC(=O)[C@H](CCC(=O)O)NC(=O)[C@H](CC(C)C)NC(=O)[C@H](Cc1ccc(O)cc1)NC(=O)[C@H](CO)NC(=O)[C@H](CO)NC(=O)[C@@H](NC(=O)[C@H](CC(=O)O)NC(=O)[C@H](CO)NC(=O)[C@@H](NC(=O)[C@H](Cc1ccccc1)NC(=O)[C@@H](NC(=O)CNC(=O)[C@H](CCC(=O)O)NC(=O)[C@H](C)NC(=O)[C@@H](N)Cc1cnc[nH]1)[C@@H](C)O)[C@@H](C)O)C(C)C)C(=O)N[C@@H](C)C(=O)N[C@@H](Cc1c[nH]c2ccccc12)C(=O)N[C@@H](CC(C)C)C(=O)N[C@H](C(=O)N[C@@H](CCCCN)C(=O)NCC(=O)N[C@@H](CCCNC(=N)N)C(=O)O)C(C)C,half-life,[1],< 2 min
CCCCCCCCCCCCCCCC(=O)NCCCC[C@H](NC(=O)[C@H](Cc1ccc(O)cc1)NC(=O)[C@@H](NC(=O)[C@H](CO)NC(=O)[C@H](CC(C)C)NC(=O)[C@H](CCC(=O)O)NC(=O)[C@H](CO)NC(=O)[C@@H](NC(=O)[C@H](Cc1ccccc1)NC(=O)[C@H](CO)NC(=O)CNC(=O)[C@H](CC(=O)O)NC(=O)CNC(=O)[C@@H](N)Cc1cnc[nH]1)[C@@H](C)O)[C@@H](C)O)C(=O)N[C@@H](CC(=O)O)C(=O)N[C@@H](C)C(=O)N[C@@H](CC(C)C)C(=O)N[C@@H](C)C(=O)N[C@@H](C)C(=O)N[C@@H](CCCNC(=N)N)C(=O)N[C@@H](CC(=O)O)C(=O)N[C@@H](Cc1ccccc1)C(=O)N[C@H](C(=O)N[C@@H](C)C(=O)N[C@@H](Cc1c[nH]c2ccccc12)C(=O)N[C@@H](CC(C)C)C(=O)N[C@H](C(=O)N[C@@H](CCC(N)=O)C(=O)N[C@H](C(=O)N[C@@H](CCCCN)C(=O)N[C@H](C(=O)N[C@H](C(=O)N[C@@H](CC(=O)O)C(N)=O)[C@@H](C)O)[C@@H](C)CC)[C@@H](C)O)[C@@H](C)CC)[C@@H](C)CC (H-HGDGSFTSELSTYK(Palmitoyl)DALAARDFIAWLIQTKITD-NH2),half-life,[2],2.7 h
same,pEC50,[3],9.00
same,pEC50,[4],9.77
CCCC[C@H](NC(=O)[C@H](CCC(=O)O)NC(=O)[C@H](CC(=O)O)NC(=O)[C@H](CO)NC(=O)[C@H](Cc1ccccc1)NC(=O)[C@H](CO)NC(=O)CNC(=O)[C@H](CC(=O)O)NC(=O)CNC(=O)[C@@H](N)Cc1cnc[nH]1)C(=O)N[C@H](Cc1ccccc1)C(=O)N[C@H](C(=O)N[C@H](C(=O)N[C@@H](CC(C)C)C(=O)N[C@@H](CC(=O)O)C(=O)N[C@@H](CC(C)C)C(=O)N[C@@H](CC(C)C)C(=O)N[C@@H](C)C(=O)N[C@@H](C)C(=O)N[C@@H](CCCNC(=N)N)C(=O)N[C@@H](CC(=O)O)C(=O)N[C@@H](Cc1ccccc1)C(=O)N[C@H](C(=O)N[C@@H](CC(N)=O)C(=O)N[C@@H](Cc1c[nH]c2ccccc12)C(=O)N[C@@H](CC(C)C)C(=O)N[C@H](C(=O)N[C@@H](CCC(N)=O)C(=O)N[C@H](C(=O)N[C@@H](CCCCN)C(=O)N[C@H](C(=O)N[C@H](C(=O)N[C@@H](CC(=O)O)C(N)=O)[C@@H](C)O)[C@@H](C)CC)[C@@H](C)O)[C@@H](C)CC)[C@@H](C)CC)[C@@H](C)CC)[C@@H](C)O [FE 203799] (H-HGDGSFSDE[Nle][dF]TILDLLAARDFINWLIQTKITD-NH2),clearance,[5],< 0.3 mL/min/kg
same,half-life,[6],> 30 h
same,half-life,[7],> 30 h
CC[C@H](C)[C@H](NC(=O)[C@H](Cc1ccccc1)NC(=O)[C@H](CC(=O)O)NC(=O)[C@H](CCCNC(=N)N)NC(=O)[C@H](C)NC(=O)[C@H](C)NC(=O)[C@H](CC(C)C)NC(=O)[C@H](CC(N)=O)NC(=O)[C@H](CC(=O)O)NC(=O)[C@H](CC(C)C)NC(=O)[C@@H](NC(=O)[C@@H](NC(=O)[C@H](CC(N)=O)NC(=O)[C@H](CCSC)NC(=O)[C@H](CCC(=O)O)NC(=O)[C@H](CC(=O)O)NC(=O)[C@H](CO)NC(=O)[C@H](Cc1ccccc1)NC(=O)[C@H](CO)NC(=O)CNC(=O)[C@H](CC(=O)O)NC(=O)CNC(=O)[C@@H](N)Cc1c[nH]cn1)[C@@H](C)O)[C@@H](C)CC)C(=O)N[C@@H](CC(N)=O)C(=O)N[C@@H](Cc1c[nH]c2ccccc12)C(=O)N[C@@H](CC(C)C)C(=O)N[C@H](C(=O)N[C@@H](CCC(N)=O)C(=O)N[C@H](C(=O)N[C@@H](CCCCN)C(=O)N[C@H](C(=O)N[C@H](C(=O)N[C@@H](CC(=O)O)C(=O)O)[C@@H](C)O)[C@@H](C)CC)[C@@H](C)O)[C@@H](C)CC [TEDUGLUTIDE],half-life,[8],2 h
H-HGDGSFTSELSTYLDALAARDFIAWLIQTKITD-NH2,half-life,[2],0.9 h
same,pEC50,[3],10.05
same,pEC50,[4],10.15
H-HGEGTFSSELATILDALAARDFIAWLIATKITDKKKKKK-NH2,Activity,Homo sapiens,<=86%
same,half-life,[9],50 h
SEMAGLUTIDE,t1/2,[10],165 h
